Reference: the NIST ThermoML archive (doi:10.1016/j.jct.2018.12.028)
Numbers after ± are expanded uncertainties.

Assay: wn = mass fraction of the nth substance listed
Conditions: 101.3 kPa, Liquid; for viscosity: Falling or rolling sphere viscometry; for mass density: Vibrating tube method

COCCO [2-methoxyethan-1-ol] + NCCO
Conditions	mass density [kg/m3]	viscosity [mPa·s]
293.15 K, w2 = 0	964.7 ± 2	1.692 ± 0.071
293.15 K, w2 = 0.1	971.8 ± 2	2.321 ± 0.097
293.15 K, w2 = 0.3	984.5 ± 2	4.371 ± 0.18
293.15 K, w2 = 0.5	995.6 ± 2	7.952 ± 0.33
293.15 K, w2 = 0.7	1005.1 ± 2	13 ± 0.54
293.15 K, w2 = 0.898	1013.4 ± 2	20.5 ± 0.87
298.15 K, w2 = 0	960.1 ± 2	1.527 ± 0.064
298.15 K, w2 = 0.1	967.3 ± 2	2.065 ± 0.086
298.15 K, w2 = 0.3	980.2 ± 2	3.765 ± 0.16
298.15 K, w2 = 0.5	991.4 ± 2	6.634 ± 0.27
298.15 K, w2 = 0.7	1001 ± 2	10.51 ± 0.44
298.15 K, w2 = 0.898	1009.4 ± 2	16.17 ± 0.69
303.15 K, w2 = 0	955.5 ± 2	1.386 ± 0.058
303.15 K, w2 = 0.1	962.8 ± 2	1.849 ± 0.077
303.15 K, w2 = 0.3	975.8 ± 2	3.269 ± 0.13
303.15 K, w2 = 0.5	987.1 ± 2	5.598 ± 0.23
303.15 K, w2 = 0.7	996.9 ± 2	8.619 ± 0.36
303.15 K, w2 = 0.898	1005.4 ± 2	12.97 ± 0.55
308.15 K, w2 = 0	950.9 ± 2	1.262 ± 0.053
308.15 K, w2 = 0.1	958.3 ± 2	1.664 ± 0.069
308.15 K, w2 = 0.3	971.5 ± 2	2.861 ± 0.12
308.15 K, w2 = 0.5	982.9 ± 2	4.773 ± 0.2
308.15 K, w2 = 0.7	992.8 ± 2	7.158 ± 0.3
308.15 K, w2 = 0.898	1001.4 ± 2	10.55 ± 0.44
313.15 K, w2 = 0	946.2 ± 2	1.155 ± 0.048
313.15 K, w2 = 0.1	953.7 ± 2	1.504 ± 0.062
313.15 K, w2 = 0.3	967.1 ± 2	2.521 ± 0.1
313.15 K, w2 = 0.5	978.6 ± 2	4.105 ± 0.17
313.15 K, w2 = 0.7	988.6 ± 2	6.011 ± 0.25
313.15 K, w2 = 0.898	997.3 ± 2	8.699 ± 0.37
318.15 K, w2 = 0	941.5 ± 2	1.061 ± 0.044
318.15 K, w2 = 0.1	949.1 ± 2	1.367 ± 0.056
318.15 K, w2 = 0.3	962.7 ± 2	2.235 ± 0.092
318.15 K, w2 = 0.5	974.3 ± 2	3.561 ± 0.15
318.15 K, w2 = 0.7	984.4 ± 2	5.098 ± 0.21
318.15 K, w2 = 0.898	993.3 ± 2	7.265 ± 0.31
323.15 K, w2 = 0	936.7 ± 2	0.9781 ± 0.041
323.15 K, w2 = 0.1	944.5 ± 2	1.246 ± 0.051
323.15 K, w2 = 0.3	958.2 ± 2	1.992 ± 0.082
323.15 K, w2 = 0.5	970 ± 2	3.112 ± 0.13
323.15 K, w2 = 0.7	980.3 ± 2	4.367 ± 0.18
323.15 K, w2 = 0.898	989.2 ± 2	6.134 ± 0.26
328.15 K, w2 = 0	932 ± 2	0.905 ± 0.037
328.15 K, w2 = 0.1	939.9 ± 2	1.141 ± 0.047
328.15 K, w2 = 0.3	953.8 ± 2	1.786 ± 0.073
328.15 K, w2 = 0.5	965.7 ± 2	2.741 ± 0.11
328.15 K, w2 = 0.7	976 ± 2	3.775 ± 0.16
328.15 K, w2 = 0.898	985.1 ± 2	5.229 ± 0.22
333.15 K, w2 = 0	927.2 ± 2	0.8397 ± 0.035
333.15 K, w2 = 0.1	935.2 ± 2	1.049 ± 0.043
333.15 K, w2 = 0.3	949.2 ± 2	1.609 ± 0.066
333.15 K, w2 = 0.5	961.3 ± 2	2.427 ± 0.1
333.15 K, w2 = 0.7	971.8 ± 2	3.288 ± 0.14
333.15 K, w2 = 0.898	981 ± 2	4.503 ± 0.19
338.15 K, w2 = 0	922.3 ± 2	0.7818 ± 0.032
338.15 K, w2 = 0.1	930.4 ± 2	0.967 ± 0.04
338.15 K, w2 = 0.3	944.7 ± 2	1.456 ± 0.06
338.15 K, w2 = 0.5	956.9 ± 2	2.161 ± 0.089
338.15 K, w2 = 0.7	967.5 ± 2	2.884 ± 0.12
338.15 K, w2 = 0.898	976.9 ± 2	3.91 ± 0.16
343.15 K, w2 = 0	917.4 ± 2	0.7298 ± 0.03
343.15 K, w2 = 0.1	925.7 ± 2	0.8945 ± 0.037
343.15 K, w2 = 0.3	940.1 ± 2	1.324 ± 0.054
343.15 K, w2 = 0.5	952.5 ± 2	1.936 ± 0.08
343.15 K, w2 = 0.7	963.3 ± 2	2.546 ± 0.1
343.15 K, w2 = 0.898	972.7 ± 2	3.42 ± 0.14
348.15 K, w2 = 0	912.4 ± 2	0.6834 ± 0.028
348.15 K, w2 = 0.1	920.8 ± 2	0.8302 ± 0.034
348.15 K, w2 = 0.3	935.5 ± 2	1.207 ± 0.049
348.15 K, w2 = 0.5	948 ± 2	1.741 ± 0.071
348.15 K, w2 = 0.7	958.9 ± 2	2.261 ± 0.093
348.15 K, w2 = 0.898	968.5 ± 2	3.011 ± 0.13
353.15 K, w2 = 0	907.4 ± 2	0.6409 ± 0.026
353.15 K, w2 = 0.1	916 ± 2	0.7712 ± 0.032
353.15 K, w2 = 0.3	930.8 ± 2	1.105 ± 0.045
353.15 K, w2 = 0.5	943.5 ± 2	1.568 ± 0.064
353.15 K, w2 = 0.7	954.6 ± 2	2.019 ± 0.083
353.15 K, w2 = 0.898	964.3 ± 2	2.67 ± 0.11
